PubChem BioAssay (NCI)
Values joined by “and” are separate entries in the source; they are usually repeats but may differ in a detail not shown here. Equal values may be shown once.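 Following 48 hours of exposure in 96-well plates, responses at five concentrations were used to interpolate endpoints linearly. GI50: concentration for 50% inhibition of growth. TGI: concentration producing complete growth inhibition.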

Experiments:
Assay in all cases: NCI tumour cell line growth inhibition, 48 h
[1] = tested on: 786-0 renal
[2] = tested on: A498 renal
[3] = tested on: A549 NSCLC
[4] = tested on: ACHN renal
[5] = tested on: BT-549 breast
[6] = tested on: CAKI-1 renal
[7] = tested on: CCRF-CEM leukemia
[8] = tested on: COLO 205 colon
[9] = tested on: DU-145 prostate
[10] = tested on: EKVX NSCLC
[11] = tested on: HCC-2998 colon
[12] = tested on: HCT-116 colon
[13] = tested on: HCT-15 colon
[14] = tested on: HL-60(TB) leukemia
[15] = tested on: HOP-62 NSCLC
[16] = tested on: HOP-92 NSCLC
[17] = tested on: HS 578T breast
[18] = tested on: HT29 colon
[19] = tested on: IGROV1 ovarian
[20] = tested on: K-562 leukemia
[21] = tested on: KM12 colon
[22] = tested on: LOX IMVI melanoma
[23] = tested on: M14 melanoma
[24] = tested on: MALME-3M melanoma
[25] = tested on: MDA-MB-231 breast
[26] = tested on: MDA-MB-435
[27] = tested on: MDA-MB-468 breast
[28] = tested on: MOLT-4 leukemia
[29] = tested on: NCI-H226 lung
[30] = tested on: NCI-H23 lung
[31] = tested on: NCI-H460 lung
[32] = tested on: NCI-H522 lung
[33] = tested on: NCI/ADR-RES ovarian
[34] = tested on: OVCAR-3 ovarian
[35] = tested on: OVCAR-4 ovarian
[36] = tested on: OVCAR-5 ovarian
[37] = tested on: OVCAR-8 ovarian
[38] = tested on: PC-3 prostate
[39] = tested on: RPMI-8226 leukemia
[40] = tested on: RXF 393 renal
[41] = tested on: SF-268 CNS
[42] = tested on: SF-295 CNS
[43] = tested on: SF-539 CNS
[44] = tested on: SK-MEL-2 melanoma
[45] = tested on: SK-MEL-28 melanoma
[46] = tested on: SK-MEL-5 melanoma
[47] = tested on: SK-OV-3 ovarian
[48] = tested on: SN12C renal
[49] = tested on: SNB-19 CNS
[50] = tested on: SNB-75 CNS
[51] = tested on: SR leukemia
[52] = tested on: SW-620 colon
[53] = tested on: T-47D breast
[54] = tested on: TK-10 renal
[55] = tested on: U251 CNS
[56] = tested on: UACC-257 melanoma
[57] = tested on: UACC-62 melanoma
[58] = tested on: UO-31 renal

COc1cc2c3c(n(CCCN4CCOCC4)c(=O)c2cc1OC)-c1nc2c(cc1C3=O)OCO2
GI50 [1]: 0.593 µM
TGI [1]: 29.4 µM
GI50 [2]: > 69.2 µM
TGI [2]: > 100 µM
GI50 [3]: 3.43 µM
TGI [3]: > 100 µM
GI50 [4]: 0.15 µM
TGI [4]: > 100 µM
GI50 [5]: 0.619 µM
TGI [5]: 8.43 µM
GI50 [6]: 0.159 µM
TGI [6]: > 100 µM
GI50 [7]: 0.0351 µM
TGI [7]: 1.72 µM
GI50 [8]: 1.36 µM
TGI [8]: > 100 µM
GI50 [9]: 0.418 µM
TGI [9]: > 100 µM
GI50 [10]: 1.97 µM
TGI [10]: > 100 µM
GI50 [11]: 1.86 µM
TGI [11]: > 100 µM
GI50 [12]: 0.416 µM
TGI [12]: > 100 µM
GI50 [13]: 1.24 µM
TGI [13]: > 100 µM
GI50 [14]: 1.25 µM
TGI [14]: > 100 µM
GI50 [15]: 0.051 µM
TGI [15]: 0.748 µM
GI50 [16]: 2.87 µM
TGI [16]: > 100 µM
GI50 [17]: 25.3 µM
TGI [17]: > 100 µM
GI50 [18]: 0.442 µM
TGI [18]: 11.6 µM
GI50 [19]: > 100 µM
TGI [19]: > 100 µM
GI50 [20]: 0.177 µM
TGI [20]: > 82.9 µM
GI50 [21]: > 53.9 µM
TGI [21]: > 100 µM
GI50 [22]: 0.17 µM
TGI [22]: 1.47 µM
GI50 [23]: 0.25 µM
TGI [23]: > 100 µM
GI50 [24]: 1.75 µM
TGI [24]: > 100 µM
GI50 [25]: 2.38 µM
TGI [25]: 5.62 µM
GI50 [26]: 0.828 µM
TGI [26]: > 100 µM
GI50 [27]: 0.13 µM
TGI [27]: 0.51 µM
GI50 [28]: 0.0581 µM
TGI [28]: 16 µM
GI50 [29]: 0.495 µM
TGI [29]: > 33 µM
GI50 [30]: 0.185 µM
TGI [30]: 1.52 µM
GI50 [31]: 0.0772 µM
TGI [31]: 2.35 µM
GI50 [32]: 0.277 µM
TGI [32]: 15.7 µM
GI50 [33]: 0.327 µM
TGI [33]: 3.68 µM
GI50 [34]: 4.61 µM
TGI [34]: > 100 µM
GI50 [35]: > 100 µM
TGI [35]: > 100 µM
GI50 [36]: 4.91 µM
TGI [36]: > 100 µM
GI50 [37]: 2.92 µM
TGI [37]: > 100 µM
GI50 [38]: 2.09 µM
TGI [38]: > 100 µM
GI50 [39]: 0.341 µM
TGI [39]: > 56.4 µM
GI50 [40]: 1.2 µM
GI50 [41]: 0.892 µM
TGI [41]: > 100 µM
GI50 [42]: 0.0556 µM
TGI [42]: 1.7 µM
GI50 [43]: 0.226 µM
TGI [43]: 1.33 µM
GI50 [44]: > 100 µM
TGI [44]: > 100 µM
GI50 [45]: > 52 µM
TGI [45]: > 100 µM
GI50 [46]: 0.18 µM
TGI [46]: 0.61 µM
GI50 [47]: 0.217 µM
TGI [47]: 4 µM
GI50 [48]: 2.72 µM
TGI [48]: > 100 µM
GI50 [49]: 0.271 µM
TGI [49]: > 100 µM
GI50 [50]: 0.254 µM
TGI [50]: > 64.5 µM
GI50 [51]: 0.0606 µM
TGI [51]: > 49 µM
GI50 [52]: 0.477 µM
TGI [52]: > 100 µM
GI50 [53]: 0.185 µM
TGI [53]: > 100 µM
GI50 [54]: > 100 µM
TGI [54]: > 100 µM
GI50 [55]: 0.109 µM
TGI [55]: 3.78 µM
TGI [56]: > 100 µM
GI50 [57]: 0.117 µM
TGI [57]: > 100 µM
GI50 [58]: 0.499 µM
TGI [58]: > 100 µM

Fc1cnc(NC2CC2)nc1-c1cnc2ccc(N3CCOCC3)cn12
GI50 [27]: 0.182 µM
TGI [27]: 0.429 µM

O=C(/C=C/c1ccc(Cl)cc1)/C=C/c1cc2ccccc2[nH]c1=O
GI50 [27]: 2.35 µM
TGI [27]: 6.01 µM

CCn1cc(C(=O)O)c(=O)c2cc(F)c(N3CCN(S(=O)(=O)c4ccc(Cl)cc4)CC3)cc21
GI50 [27]: 2.1 µM
TGI [27]: 6.24 µM

O=C(Nc1cccc(Cl)c1)Nc1nc2ccc([N+](=O)[O-])cc2s1
GI50 [27]: 1.04 µM
TGI [27]: 3.25 µM

CN1CCc2c(c3ccccc3c3ccccc23)C1
GI50 [27]: 2.22 µM
TGI [27]: 9.94 µM

O=NN(CCCl)C(=O)NCCCl
TGI [27]: 146 µM and > 500 µM

CC(=O)O[C@H]1CCC2(C)C(=CCC3C2CCC2(C)/C(=N/OC(=O)c4ccc(N(CCCl)CCCl)cc4)CCC32)C1 (stereo partly drawn)
GI50 [27]: 31.1 µM
TGI [27]: > 100 µM

CCc1ccc(CNCC(O)c2ccccc2)cc1 (stereo not drawn)
GI50 [27]: 13.2 µM
TGI [27]: 28.2 µM

COc1cc(NCCCCCN=C(N)N)c2ncccc2c1
GI50 [27]: 0.078 µM
TGI [27]: 0.344 µM

CN1CCN(CCCOc2ccc3nc(Nc4cc(Cl)cc(Cl)c4)ccc3c2)CC1
GI50 [27]: 1.6 µM
TGI [27]: 3.25 µM
